{"source": "patent US20220026427A1", "about": "“CELL BASED ASSAYS AND KITS FOR ASSESSING SERUM CHOLINERGIC RECEPTOR ACTIVITY” (Centre for Addiction and Mental Health, priority 2017, published 2022)", "key": {"[1]": {"target": "T1, human or rat M1 muscarinic receptors (Rattus norvegicus, UniProt P08482)", "T1 construct": "host or cells: CHO cells (M1WT3), whole cells", "T1 sequence (P08482 1-460)": "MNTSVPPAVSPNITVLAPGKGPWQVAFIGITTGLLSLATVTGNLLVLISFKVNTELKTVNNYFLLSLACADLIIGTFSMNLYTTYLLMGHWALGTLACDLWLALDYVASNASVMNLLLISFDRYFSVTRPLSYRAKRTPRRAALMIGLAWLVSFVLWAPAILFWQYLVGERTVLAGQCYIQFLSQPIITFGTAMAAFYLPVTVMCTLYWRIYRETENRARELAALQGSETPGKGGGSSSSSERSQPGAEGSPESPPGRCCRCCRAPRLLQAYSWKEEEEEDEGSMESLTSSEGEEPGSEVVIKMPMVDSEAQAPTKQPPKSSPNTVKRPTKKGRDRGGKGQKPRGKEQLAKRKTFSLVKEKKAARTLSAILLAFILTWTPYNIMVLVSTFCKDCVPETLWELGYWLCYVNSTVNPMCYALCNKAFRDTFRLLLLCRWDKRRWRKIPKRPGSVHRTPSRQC", "test": "Ca2+ mobilization (FluoForte) protocol in CHO cells expressing M1 receptors, pre- and post-carbachol phases", "format": "cell-based"}, "[2]": {"system": "cognitively intact healthy participants", "conditions": "in vivo, iv", "from_the_text": "Cambridge Neuropsychological Test Automated Battery (CANTAB-AD):\nTwo main challenges are often encountered with many of the newer neurocognitive tasks. First is the lack of standardization in administering such tasks. Second is the lack of information on their psychometric properties. The Cambridge Neuropsychological Test Automated Battery (CANTAB) system addresses both of these challenges (www.cambridgecognition.com). The design of the CANTAB is based on well-established neurocognitive experimental paradigms. It was designed initially to provide componential analysis of cognitive functions in the elderly and individuals with dementia. The CANTAB Eclipse consists of 22 tasks that assess neurocognitive processes within a wide range of relatively independent cognitive domains, including visual memory, attention, working memory and problem solving. Each of the tasks is graded, allowing the assessment of patients with varying level of impairment. Increasing the difficulty of a task avoids a ceiling effect. Conversely, decreasing the difficulty of a task avoids a floor effect and allows the distinction between specific and generalized deficits (a concern discussed above). The tasks are automated and therefore testing is given in a standardized manner with a standardized feedback about accuracy and speed. […] Estimates of test-retest reliability and of practice effects are available for many of the CANTAB tasks based on an elderly sample with an age range of 60-80 years. The CANTAB has been used in a variety of clinical populations providing an opportunity to compare findings related to different disorders, including findings examining cognition in late-life bipolar disorder. Finally, the CANTAB tasks are independent of language and culture and can be used in population for whom English is not a primary language^46.\nParticipants attended the Centre for Addiction and Mental Health on two separate occasions:\nVisit 2: Upon arrival at CAMH, participants were administered the CANTAB. An IV line was then set up by a research nurse and the first blood sample was taken. […] The CANTAB was completed once more. […] The qualified investigator or designate was available for the entirety of the study visit."}}, "note": "Counter-ions that a name gives are not always drawn.", "data": [{"smiles": "Clc1ccc2c(c1)N=C(N1CCNCC1)c1ccccc1N2", "note": "[NDMC, N-desmethylclozapine]", "values": [{"measurement": "effect on Ca2+ mobilization in the pre-carbachol phase", "setting": "[1]", "result": "stronger effects than CLZ"}, {"measurement": "effect on the carbachol response (post-carbachol phase)", "setting": "[1]", "result": "virtually eliminated the carbachol response"}]}, {"smiles": "CN1[C@@H]2CC[C@H]1C[C@@H](OC(=O)C(CO)c1ccccc1)C2", "note": "(stereo partly shown) [Atropine, atropine]", "values": [{"measurement": "effect of the antagonist alone on Ca2+ mobilization", "setting": "[1]", "result": "no effect on their own"}, {"measurement": "effect on the agonist response (serum peak)", "setting": "[1]", "result": "completely blocked this agonist response"}]}, {"smiles": "CN1[C@@H]2C[C@@H](OC(=O)[C@H](CO)c3ccccc3)C[C@H]1[C@@H]1O[C@@H]12", "note": "[scopolamine, Scopolamine Hydrobromide]", "values": [{"measurement": "blc_pc difference score (Big/little circle, Percent correct)", "setting": "[2]", "result": "−0.8"}, {"measurement": "dms_pc difference score (Delayed matching to sample, Percent correct (all delays))", "setting": "[2]", "result": "−19.3"}, {"measurement": "dms_pcs difference score (Delayed matching to sample, Percent correct (simultaneous))", "setting": "[2]", "result": 4.4}, {"measurement": "dms_pege difference score (Delayed matching to sample, Prob error given error)", "setting": "[2]", "result": 0.1}, {"measurement": "pal_tea6 difference score (Paired associated learning, Total errors (6 shapes, adjusted))", "setting": "[2]", "result": 9.0}, {"measurement": "pal_tea difference score (Paired associated learning, Total errors (adjusted))", "setting": "[2]", "result": 19.1}, {"measurement": "rvp_a difference score (Rapid image visual processing, A′)", "setting": "[2]", "result": "−0.1"}, {"measurement": "soc_mitt5 difference score (Stocking of Cambridge, Mean initial thinking time (5 moves))", "setting": "[2]", "result": "−3055.0"}, {"measurement": "soc_mstt5 difference score (Stocking of Cambridge, Mean subsequent thinking time (5 moves))", "setting": "[2]", "result": 5139.3}, {"measurement": "soc_psimm difference score (Stocking of Cambridge, Problems solved in minimum moves)", "setting": "[2]", "result": "−1.7"}, {"measurement": "swm_be difference score (Spatial working memory, Between errors)", "setting": "[2]", "result": 20.2}, {"measurement": "swm_strat difference score (Spatial working memory, Strategy)", "setting": "[2]", "result": 3.1}]}]}
